Data: US20080207638A1, “Compounds” (priority 2005, published 2008)
Counter-ions that a name gives are not always drawn.

What was measured:
[1] = Rat pharmacokinetics; assay type: in vivo, male CD Sprague Dawley rats; conditions: 1 mg/kg i.v., 3 mg/kg oral
Experimental: Compounds were dosed to male CD Sprague Dawley rats by single intravenous or oral administration at a nominal dose level of 1 mgkg^−1 and 3 mgkg^−1 respectively. Compounds were formulated in 5% DMSO/45% PEG200/50% water. An intravenous profile was obtained by taking serial or terminal blood samples at 0.083, 0.25, 0.5, 1, 2, 4, and 7 h post-dose. An oral profile was obtained by taking serial or terminal blood samples at 0.25, 0.5, 1, 2, 4, 7 and 12 h post-dose. Blood samples were taken directly into heparinised tubes. Blood samples were prepared by protein precipitation and subjected to quantitative analysis by LC-MS/MS using compound-specific mass transitions. Drug concentration-time profiles were generated and non-compartmental PK analysis used to generate estimates of half-life, clearance, volume of distribution and oral bioavailability.

[2] = Dog pharmacokinetics; assay type: in vivo, male Beagle dogs; conditions: 1 mg/kg i.v., 2 mg/kg oral
Experimental: Compounds were dosed to male Beagle dogs by single intravenous or oral administration at a nominal dose level of 1 mgkg^−1 and 2 mgkg^−1 respectively. The study was carried out according to a crossover design such that the same dog was used for both dosing events and the dosing events occurred 1 week apart. Compounds were formulated in 5%DMSO/45%Peg2oO/50%water. An intravenous profile was obtained by taking serial blood samples at 0.083, 0.25, 0.5, 0.75, 1, 2, 4, 6 & 12 h post-dose. An oral profile was obtained by taking serial blood samples at 0.25, 0.5, 0.75, 1, 2, 4, 6, 12 & 24 h post-dose. Blood samples were taken directly into heparinised tubes. Blood samples were prepared by protein precipitation and subjected to quantitative analysis by LC-MS/MS using compound-specific mass transitions. Drug concentration-time profiles were generated and non-compartmental PK analysis used to generate estimates of half-life, clearance, volume of distribution and oral bioavailability.

[3] = CNS penetration; assay type: in vivo, male CD Sprague Dawley rats; conditions: male, CD Sprague Dawley, iv; rat, 1 mg/kg i.v., brain 5 min post-dose
Experimental: Compounds were dosed intravenously at a nominal dose level of 1 mgkg−1 to male CD Sprague Dawley rats. Compounds were formulated in 5% DMSO/45% PEG200/50% water. Blood samples were taken under terminal anaesthesia with isoflurane at 5 min post-dose and the brains were also removed for assessment of brain penetration. Blood samples were taken directly into heparinised tubes. Blood samples were prepared for analysis using protein precipitation and brain samples were prepared using extraction of drug from brain by homogenisation and subsequent protein precipitation. The concentration of parent drug in blood and brain extracts was determined by quantitative LC-MS/MS analysis using compound-specific mass transitions.

C[C@@H]1CCCN1CCCOc1ccc(N2CCN(C(=O)c3ccc(F)cc3F)CC2=O)cc1 [Example E1, 4-[(2,4-Difluorophenyl)carbonyl]-1-[4-({3-[(2R)-2-methyl-1-pyrrolidinyl]propyl)oxy)phenyl]-2-piperazinone, formate salt]
oral bioavailability [1]: approximately 48 % F | oral bioavailability [2]: approximately 100 % F | concentration at 5 min [3]: ~57.5 ng/g
